We go through 4 compounds from ChEMBL document CHEMBL4476872, “Inhibitors of cellular metabolic processes” (2018).

Structures are written as SMILES.

By IC50 is commonly meant the concentration needed to halve the response being measured.

Sequence of S-adenosylmethionine synthase isoform type-2 (P31153 whole entry, canonical isoform): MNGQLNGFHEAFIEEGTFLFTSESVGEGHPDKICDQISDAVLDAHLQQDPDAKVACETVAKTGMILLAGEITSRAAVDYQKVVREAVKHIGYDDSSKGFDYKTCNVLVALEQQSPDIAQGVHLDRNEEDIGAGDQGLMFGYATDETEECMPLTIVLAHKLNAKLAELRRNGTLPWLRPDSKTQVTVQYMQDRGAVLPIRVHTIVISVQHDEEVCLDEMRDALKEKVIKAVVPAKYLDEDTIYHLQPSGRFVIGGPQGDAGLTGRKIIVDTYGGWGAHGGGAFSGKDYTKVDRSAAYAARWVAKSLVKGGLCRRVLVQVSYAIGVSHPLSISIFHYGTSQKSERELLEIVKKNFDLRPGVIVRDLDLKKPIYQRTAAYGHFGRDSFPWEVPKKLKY

The assay has as its target S-adenosylmethionine synthase isoform type-2 (Homo sapiens, UniProt P31153). Nature of the assay: Inhibition of recombinant His6-tagged MAT2A (unknown origin) expressed in SF9 insect cells using L-Met as substrate preincubated for 60 mins followed by substrate and ATP addition and measured after 60 mins by spectrophotometric analysis.
On to `COC(=O)Cc1nc2ccc(-c3c(C)[nH]c4c(-c5ccccc5)c(-c5ccccc5)nn4c3=O)cc2s1`, for which the IC50 was below 100 nM.

Consider `COc1ccc(-c2c(CC#N)[nH]c3c(-c4ccccc4)c(-c4ccccc4)nn3c2=O)cc1`, for which the IC50 lay in the range of 100 to 1000 nM.

For the compound `Cc1[nH]c2c(-c3ccccc3)c(-c3ccccc3)nn2c(=O)c1-c1ccc(OCC(=O)N(C)C)cc1`, the IC50 lay in the range of 100 to 1000 nM.

Take `Cc1[nH]c2c(N3CCCCC3)c(-c3ccccc3)nn2c(=O)c1-c1ccccc1`: the IC50 fell in the range of 100 to 1000 nM.
